Assay results published in ChEMBL document CHEMBL3580646, “SAR and Structural Analysis of Siderophore-Conjugated Monocarbam Inhibitors of Pseudomonas aeruginosa PBP3” (ACS Med Chem Lett, 2015).
≈ marks a conversion by molar mass, not a printed value.

What was measured:
[1] = Unbound fraction in human plasma after 16 hrs by LC-MS/MS analysis
Pseudomonas aeruginosa [2] = test: Antibacterial activity against Pseudomonas aeruginosa PAO1 by broth microdilution method; format: functional
Pseudomonas aeruginosa [3] = test: Activity of Pseudomonas aeruginosa PBP3 assessed as acylation rate constant
[4] = Half life of the compound at pH 7.4 at 37 degC; format: ADME
[5] = Clearance in Han Wistar rat at 1 mg/kg, iv; format: ADME, organism-based; conditions: in vivo
[6] = Half life in Han Wistar rat at 1 mg/kg, iv; format: ADME, organism-based; conditions: in vivo
[7] = Volume of distribution at steady state in Han Wistar rat at 1 mg/kg, iv; format: ADME, organism-based; conditions: in vivo, read-out: Vdss
Pseudomonas aeruginosa [8] = test: Antibacterial activity against Pseudomonas aeruginosa; format: functional

Row | fraction unbound at 16 h [1] | MIC (Pseudomonas aeruginosa [2]) [µg/mL] | K (Pseudomonas aeruginosa [3]) | half-life [4] [h] | clearance [5] [mL/min/kg] | half-life [6] [h] | Vd [7] [L/kg] | SMILES | MIC90 (Pseudomonas aeruginosa [8]) [µg/mL]
1 | 0.12 | 4 (≈ 5.06 µM) | 1.5 ×10⁵ /M/s | 82 | – | – | – | C[C@H]1[C@H](NC(=O)/C(=N\OC(C)(C)C(=O)O)c2csc(N)n2)C(=O)N1C(=O)NS(=O)(=O)n1nc(-c2cc(=O)c(O)cn2O)n(CCCS(C)(=O)=O)c1=O | –
2 | 0.03 | 1 (≈ 1.19 µM) | > 4 ×10⁵ /M/s | > 150 | – | – | – | C[C@H]1[C@H](NC(=O)/C(=N\OC(C)(C)C(=O)O)c2csc(N)n2)C(=O)N1C(=O)NS(=O)(=O)n1nc(-c2cc(=O)c(O)c[nH]2)n(CCCS(=O)(=O)c2ccccc2)c1=O | –
3 | – | 0.5 (≈ 0.634 µM) | 3.6 ×10⁵ /M/s | 98 | 12 | 2 | 0.35 | CC[C@H]1[C@H](NC(=O)/C(=N\OC(C)(C)C(=O)O)c2csc(N)n2)C(=O)N1C(=O)NS(=O)(=O)n1nc(-c2cc(=O)c(O)c[nH]2)n(CCCS(C)(=O)=O)c1=O | –
4 | 0.06 | 0.78 (≈ 1.09 µM) | 8.1 ×10⁵ /M/s | – | – | – | – | CC(C)(O/N=C(\C(=O)N[C@H]1CN(C(=O)NS(=O)(=O)n2nc(-c3cc(=O)c(O)c[nH]3)n(C[C@@H](O)CO)c2=O)C1=O)c1csc(N)n1)C(=O)O | –
5 | 0.2 | 1 (≈ 1.29 µM) | 2.5 ×10⁵ /M/s | 102 | – | – | – | C[C@H]1[C@H](NC(=O)/C(=N\OC(C)(C)C(=O)O)c2csc(N)n2)C(=O)N1C(=O)NS(=O)(=O)n1nc(-c2cc(=O)c(O)cn2O)n(CCS(C)(=O)=O)c1=O | –
6 | – | 1 (≈ 1.29 µM) | 1.6 ×10⁵ /M/s | 76 | – | – | – | C[C@@H]1[C@H](NC(=O)/C(=N\OC(C)(C)C(=O)O)c2csc(N)n2)C(=O)N1C(=O)NS(=O)(=O)n1nc(-c2cc(=O)c(O)c[nH]2)n(CCCS(C)(=O)=O)c1=O | –
7 | – | 4 (≈ 4.98 µM) | 7.4 ×10⁵ /M/s | > 150 | – | – | – | CCC[C@@H]1[C@H](NC(=O)/C(=N\OC(C)(C)C(=O)O)c2csc(N)n2)C(=O)N1C(=O)NS(=O)(=O)n1nc(-c2cc(=O)c(O)c[nH]2)n(CCCS(C)(=O)=O)c1=O | –
8 | 0.08 | 0.5 (≈ 0.633 µM) | 3 ×10⁵ /M/s | – | – | – | – | C[C@H]1[C@H](NC(=O)/C(=N\OC(C)(C)C(=O)O)c2csc(N)n2)C(=O)N1C(=O)NS(=O)(=O)n1nc(-c2cc(=O)c(O)c[nH]2)n(CCCNS(C)(=O)=O)c1=O | –
9 | 0.06 | 0.13 (≈ 0.171 µM) | 3.2 ×10⁵ /M/s | 86 | 8.9 | 2.5 | 0.23 | C[C@H]1[C@H](NC(=O)/C(=N\OC(C)(C)C(=O)O)c2csc(N)n2)C(=O)N1C(=O)NS(=O)(=O)n1nc(-c2cc(=O)c(O)c[nH]2)n(CCS(C)(=O)=O)c1=O | 1 (≈ 1.31 µM)
10 | 0.04 | 0.25 (≈ 0.343 µM) | 7.2 ×10⁵ /M/s | 117 | – | – | – | C[C@H]1[C@H](NC(=O)/C(=N\OC(C)(C)C(=O)O)c2csc(N)n2)C(=O)N1C(=O)NS(=O)(=O)n1nc(-c2cc(=O)c(O)c[nH]2)n(C[C@@H](O)CO)c1=O | –
11 | 0.09 | 0.25 (≈ 0.323 µM) | 1.7 ×10⁵ /M/s | 93 | 7.3 | 3 | 0.21 | C[C@H]1[C@H](NC(=O)/C(=N\OC(C)(C)C(=O)O)c2csc(N)n2)C(=O)N1C(=O)NS(=O)(=O)n1nc(-c2cc(=O)c(O)c[nH]2)n(CCCS(C)(=O)=O)c1=O | –
12 | 0.06 | 1 (≈ 1.24 µM) | 3.2 ×10⁵ /M/s | 118 | – | – | – | C[C@H]1[C@H](NC(=O)/C(=N\OC(C)(C)C(=O)O)c2nc(N)sc2Cl)C(=O)N1C(=O)NS(=O)(=O)n1nc(-c2cc(=O)c(O)c[nH]2)n(CCCS(C)(=O)=O)c1=O | –
13 | – | 1 (≈ 1.27 µM) | 8.8 ×10⁵ /M/s | 94 | – | – | – | CC[C@@H]1[C@H](NC(=O)/C(=N\OC(C)(C)C(=O)O)c2csc(N)n2)C(=O)N1C(=O)NS(=O)(=O)n1nc(-c2cc(=O)c(O)c[nH]2)n(CCCS(C)(=O)=O)c1=O | –
14 | – | 8 (≈ 10.1 µM) | 1.1 ×10⁵ /M/s | > 150 | – | – | – | CC(C)(O/N=C(\C(=O)N[C@@H]1C(=O)N(C(=O)NS(=O)(=O)n2nc(-c3cc(=O)c(O)c[nH]3)n(CCCS(C)(=O)=O)c2=O)C1(C)C)c1csc(N)n1)C(=O)O | –
15 | 0.04 | 0.5 (≈ 0.624 µM) | 4.5 ×10⁵ /M/s | 94 | – | – | – | C[C@H]1[C@H](NC(=O)/C(=N\OC(C)(C)C(=O)O)c2csc(N)n2)C(=O)N1C(=O)NS(=O)(=O)n1nc(-c2cc(=O)c(O)c[nH]2)n(CCC2(S(C)(=O)=O)CC2)c1=O | –
16 | 0.04 | 1 (≈ 1.26 µM) | 5.4 ×10⁵ /M/s | 87 | – | – | – | C[C@H]1[C@H](NC(=O)/C(=N\OC(C)(C)C(=O)O)c2csc(N)n2)C(=O)N1C(=O)NS(=O)(=O)n1nc(-c2cc(=O)c(O)c[nH]2)n(C[C@@H](O)CS(C)(=O)=O)c1=O | –
17 | – | 0.5 (≈ 0.635 µM) | 2.1 ×10⁵ /M/s | 53 | 11 | 2 | 0.18 | C=C[C@H]1[C@H](NC(=O)/C(=N\OC(C)(C)C(=O)O)c2csc(N)n2)C(=O)N1C(=O)NS(=O)(=O)n1nc(-c2cc(=O)c(O)c[nH]2)n(CCCS(C)(=O)=O)c1=O | –
18 | 0.05 | 0.78 (≈ 1.19 µM) | 1.7 ×10⁵ /M/s | – | – | – | – | Cn1c(-c2cc(=O)c(O)c[nH]2)nn(S(=O)(=O)NC(=O)N2C[C@H](NC(=O)/C(=N\OC(C)(C)C(=O)O)c3csc(N)n3)C2=O)c1=O | –
19 | 0.07 | 0.25 (≈ 0.317 µM) | 6.2 ×10⁵ /M/s | 100 | – | – | – | C[C@H]1[C@H](NC(=O)/C(=N\OC(C)(C)C(=O)O)c2csc(N)n2)C(=O)N1C(=O)NS(=O)(=O)n1nc(-c2cc(=O)c(O)c[nH]2)n(CCCCS(C)(=O)=O)c1=O | –
20 | 0.08 | 0.5 (≈ 0.645 µM) | 4.1 ×10⁵ /M/s | 61 | – | – | – | C[C@H]1[C@H](NC(=O)/C(=N\OC(C)(C)C(=O)O)c2csc(N)n2)C(=O)N1C(=O)NS(=O)(=O)n1nc(-c2cc(=O)c(O)c[nH]2)n(CCNS(C)(=O)=O)c1=O | –
21 | – | 8 (≈ 9.99 µM) | 5.9 ×10⁵ /M/s | 126 | – | – | – | C=CC[C@@H]1[C@H](NC(=O)/C(=N\OC(C)(C)C(=O)O)c2csc(N)n2)C(=O)N1C(=O)NS(=O)(=O)n1nc(-c2cc(=O)c(O)c[nH]2)n(CCCS(C)(=O)=O)c1=O | –
22 | – | < 0.6 | > 4 ×10⁵ /M/s | 102 | – | – | – | C[C@H]1[C@H](NC(=O)/C(=N\OC(C)(C)C(=O)O)c2csc(N)n2)C(=O)N1C(=O)NS(=O)(=O)n1nc(-c2cc(=O)c(O)c[nH]2)n(CCS(N)(=O)=O)c1=O | –
23 | 0.09 | 0.5 (≈ 0.624 µM) | 2.5 ×10⁵ /M/s | 71 | – | – | – | C[C@H]1[C@H](NC(=O)/C(=N\OC(C)(C)C(=O)O)c2csc(N)n2)C(=O)N1C(=O)NS(=O)(=O)n1nc(-c2cc(=O)c(O)c[nH]2)n(CC2(CS(C)(=O)=O)CC2)c1=O | –
24 | 0.27 | 0.25 (≈ 0.322 µM) | 5 ×10⁵ /M/s | 85 | 9.5 | 2 | 0.26 | C[C@H]1[C@H](NC(=O)/C(=N\OC(C)(C)C(=O)O)c2nsc(N)n2)C(=O)N1C(=O)NS(=O)(=O)n1nc(-c2cc(=O)c(O)c[nH]2)n(CCCS(C)(=O)=O)c1=O | –
25 | – | 2 (≈ 2.54 µM) | 1.9 ×10⁵ /M/s | 38 | – | – | – | C=C[C@@H]1[C@H](NC(=O)/C(=N\OC(C)(C)C(=O)O)c2csc(N)n2)C(=O)N1C(=O)NS(=O)(=O)n1nc(-c2cc(=O)c(O)c[nH]2)n(CCCS(C)(=O)=O)c1=O | –

Row | SMILES | fraction unbound at 16 h [1] | MIC (Pseudomonas aeruginosa [2]) [µg/mL] | K (Pseudomonas aeruginosa [3]) | half-life [4] [h] | clearance [5] [mL/min/kg] | half-life [6] [h] | Vd [7] [L/kg] | MIC90 (Pseudomonas aeruginosa [8]) [µg/mL]
26 | C[C@@H](O)[C@H]1C(=O)N2C(C(=O)O)=C(S[C@@H]3CN[C@H](C(=O)N(C)C)C3)[C@H](C)[C@H]12 [MEROPENEM] | – | 1 (≈ 2.61 µM) | 4.9 ×10⁴ /M/s | 95 | – | – | – | –
27 | C[C@H]1[C@H](NC(=O)/C(=N\OC(C)(C)C(=O)O)c2csc(N)n2)C(=O)N1S(=O)(=O)O [AZTREONAM] | – | 4 (≈ 9.19 µM) | – | – | – | – | – | ≥ 1020
